Reference: ChEMBL document CHEMBL5352414 (Eur J Med Chem, 2022)
Activity calls are given as the source filed them. No cut-off for these calls is given here.

Experiments:
[1] = Toxicity in mouse assessed as impairment of neuromuscular coordination by measuring shortened latency to fall at 10 mg/kg, ip measured after 60 to 90 mins by rota-rod test; type: organism-based; settings: in vivo, time 60-90 min
[2] = Toxicity in mouse assessed as catelepsy at 8 nmol per mouse, icv measured for 180 mins by bar test; settings: in vivo, icv_or_intrathecal, 3 h
[3] = target: D(2) dopamine receptor (Rattus norvegicus) (UniProt P61169); assay: Displacement of [3H]-spiperone from dopamine D2 receptor in rat brain striatum membrane homogenates at 1 uM incubated for 90 mins; type: cell membranes
Sequence of D(2) dopamine receptor (Rattus norvegicus) (P61169 whole entry): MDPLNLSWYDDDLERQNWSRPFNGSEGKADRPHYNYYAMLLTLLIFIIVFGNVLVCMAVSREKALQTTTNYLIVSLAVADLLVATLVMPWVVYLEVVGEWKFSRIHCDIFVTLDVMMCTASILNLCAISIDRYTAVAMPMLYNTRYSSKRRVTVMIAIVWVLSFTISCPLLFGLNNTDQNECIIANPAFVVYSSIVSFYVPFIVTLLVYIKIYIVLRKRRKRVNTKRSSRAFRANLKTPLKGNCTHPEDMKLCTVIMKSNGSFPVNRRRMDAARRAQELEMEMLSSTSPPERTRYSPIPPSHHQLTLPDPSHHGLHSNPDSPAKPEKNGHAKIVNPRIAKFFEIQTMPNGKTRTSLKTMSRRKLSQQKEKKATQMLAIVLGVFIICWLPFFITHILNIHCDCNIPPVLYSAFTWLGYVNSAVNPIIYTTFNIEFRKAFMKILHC

[4] = target: T1, Voltage-dependent T-type calcium channel subunit alpha-1H (Homo sapiens, UniProt O95180); assay: Inhibition of human Cav3.2 T-type Ca2+ channel expressed in HEK293 cells assessed as effect on T-currents in response to -20 mV test pulse at -110 mV holding potential by whole cell patch-clamp assay; type: cell-based
T1 sequence (O95180 whole entry): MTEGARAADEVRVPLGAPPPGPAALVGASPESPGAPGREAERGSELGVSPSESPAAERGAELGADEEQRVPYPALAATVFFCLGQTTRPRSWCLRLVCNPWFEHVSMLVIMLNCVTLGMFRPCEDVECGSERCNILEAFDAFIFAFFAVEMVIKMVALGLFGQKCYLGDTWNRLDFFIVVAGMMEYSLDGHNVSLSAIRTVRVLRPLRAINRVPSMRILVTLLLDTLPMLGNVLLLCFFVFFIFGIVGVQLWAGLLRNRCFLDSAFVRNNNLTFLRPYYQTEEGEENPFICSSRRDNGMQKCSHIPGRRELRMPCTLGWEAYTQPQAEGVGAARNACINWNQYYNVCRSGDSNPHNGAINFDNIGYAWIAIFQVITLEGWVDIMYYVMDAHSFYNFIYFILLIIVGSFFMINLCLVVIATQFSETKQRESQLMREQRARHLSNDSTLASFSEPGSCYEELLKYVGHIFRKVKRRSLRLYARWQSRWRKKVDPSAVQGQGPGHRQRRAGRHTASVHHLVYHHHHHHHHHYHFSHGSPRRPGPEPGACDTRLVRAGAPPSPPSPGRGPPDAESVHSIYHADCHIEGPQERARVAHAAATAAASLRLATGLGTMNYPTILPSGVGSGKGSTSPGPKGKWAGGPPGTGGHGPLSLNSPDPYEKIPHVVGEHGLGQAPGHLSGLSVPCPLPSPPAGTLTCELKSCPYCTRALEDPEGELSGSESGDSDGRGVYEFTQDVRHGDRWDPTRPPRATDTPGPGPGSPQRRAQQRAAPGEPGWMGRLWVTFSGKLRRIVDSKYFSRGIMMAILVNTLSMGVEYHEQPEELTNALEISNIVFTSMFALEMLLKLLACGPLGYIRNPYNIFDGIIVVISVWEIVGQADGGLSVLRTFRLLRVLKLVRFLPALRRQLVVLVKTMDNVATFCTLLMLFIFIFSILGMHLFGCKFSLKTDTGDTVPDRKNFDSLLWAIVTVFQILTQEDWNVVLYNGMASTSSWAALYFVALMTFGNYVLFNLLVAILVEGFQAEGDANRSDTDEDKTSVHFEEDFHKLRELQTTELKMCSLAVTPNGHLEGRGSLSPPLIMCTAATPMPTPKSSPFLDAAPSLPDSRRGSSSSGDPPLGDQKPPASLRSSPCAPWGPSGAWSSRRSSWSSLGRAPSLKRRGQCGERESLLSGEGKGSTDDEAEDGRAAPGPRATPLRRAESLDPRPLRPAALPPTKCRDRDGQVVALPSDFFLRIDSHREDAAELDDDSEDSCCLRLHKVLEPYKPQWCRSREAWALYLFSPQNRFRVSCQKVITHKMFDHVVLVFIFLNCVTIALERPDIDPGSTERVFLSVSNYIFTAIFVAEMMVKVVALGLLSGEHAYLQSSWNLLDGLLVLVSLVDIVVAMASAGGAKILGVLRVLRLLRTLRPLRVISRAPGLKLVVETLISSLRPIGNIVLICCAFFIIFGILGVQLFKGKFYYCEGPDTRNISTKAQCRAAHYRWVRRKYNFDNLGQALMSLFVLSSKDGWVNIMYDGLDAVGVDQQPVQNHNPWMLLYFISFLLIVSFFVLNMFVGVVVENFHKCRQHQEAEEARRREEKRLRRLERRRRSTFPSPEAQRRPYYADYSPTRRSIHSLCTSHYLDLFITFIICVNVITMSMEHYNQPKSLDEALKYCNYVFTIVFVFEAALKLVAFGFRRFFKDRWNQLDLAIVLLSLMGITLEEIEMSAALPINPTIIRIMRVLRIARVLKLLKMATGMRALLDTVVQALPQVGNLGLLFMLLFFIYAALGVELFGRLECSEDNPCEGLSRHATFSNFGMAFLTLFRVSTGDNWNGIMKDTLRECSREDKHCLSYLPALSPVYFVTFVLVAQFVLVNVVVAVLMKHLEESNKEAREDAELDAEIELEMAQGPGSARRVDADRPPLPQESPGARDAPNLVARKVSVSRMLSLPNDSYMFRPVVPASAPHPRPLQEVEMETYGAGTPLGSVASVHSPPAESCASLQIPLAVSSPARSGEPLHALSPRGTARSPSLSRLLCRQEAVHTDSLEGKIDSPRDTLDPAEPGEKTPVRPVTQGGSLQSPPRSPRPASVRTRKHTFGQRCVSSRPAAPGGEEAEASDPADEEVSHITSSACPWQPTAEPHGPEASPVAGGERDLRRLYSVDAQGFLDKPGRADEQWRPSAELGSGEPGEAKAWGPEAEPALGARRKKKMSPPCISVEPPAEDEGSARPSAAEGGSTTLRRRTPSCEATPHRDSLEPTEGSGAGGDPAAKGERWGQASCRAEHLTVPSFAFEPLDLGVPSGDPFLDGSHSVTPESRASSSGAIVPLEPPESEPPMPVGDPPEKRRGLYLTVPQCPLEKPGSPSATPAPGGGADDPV

[5] = Half life in mouse at 10 mg/kg, ip measured for 24 hrs by LC-MS/MS analysis; type: ADME, organism-based; settings: in vivo
[6] = target: T1, Voltage-dependent T-type calcium channel subunit alpha-1H; assay: Inhibition of human Cav3.2 T-type Ca2+ channel expressed in HEK293 cells assessed as reduction in T-currents at 0.3 uM at -80 mV holding potential by whole cell patch-clamp assay; type: cell-based
[7] = target: Voltage-dependent T-type calcium channel subunit alpha-1G (Homo sapiens, UniProt O43497); assay: Inhibition of human Cav3.1 T-type Ca2+ channel expressed in HEK293 cells assessed as effect on T-currents in response to -20 mV test pulse at -80 mV holding potential by whole cell patch-clamp assay; type: cell-based
[8] = target: T1, Voltage-dependent T-type calcium channel subunit alpha-1H; assay: Inhibition of human Cav3.2 T-type Ca2+ channel expressed in HEK293 cells assessed as effect on T-currents in response to -20 mV test pulse at -80 mV holding potential by whole cell patch-clamp assay; type: cell-based
[9] = Toxicity in mouse assessed as catelepsy at 10 mg/kg, ip measured for 300 mins by bar test; type: organism-based; settings: in vivo, 5 h
[10] = target: 5-hydroxytryptamine receptor 2A (Rattus norvegicus) (UniProt P14842); assay: Antagonist activity at 5-HT2A receptor in Wistar rat jugular vein assessed as vasorelaxation of serotonin-induced contraction at 10 uM preincubated for 10 mins followed by serotonin stimulation; type: functional, tissue-based
Sequence of 5-hydroxytryptamine receptor 2A (Rattus norvegicus) (P14842 whole entry): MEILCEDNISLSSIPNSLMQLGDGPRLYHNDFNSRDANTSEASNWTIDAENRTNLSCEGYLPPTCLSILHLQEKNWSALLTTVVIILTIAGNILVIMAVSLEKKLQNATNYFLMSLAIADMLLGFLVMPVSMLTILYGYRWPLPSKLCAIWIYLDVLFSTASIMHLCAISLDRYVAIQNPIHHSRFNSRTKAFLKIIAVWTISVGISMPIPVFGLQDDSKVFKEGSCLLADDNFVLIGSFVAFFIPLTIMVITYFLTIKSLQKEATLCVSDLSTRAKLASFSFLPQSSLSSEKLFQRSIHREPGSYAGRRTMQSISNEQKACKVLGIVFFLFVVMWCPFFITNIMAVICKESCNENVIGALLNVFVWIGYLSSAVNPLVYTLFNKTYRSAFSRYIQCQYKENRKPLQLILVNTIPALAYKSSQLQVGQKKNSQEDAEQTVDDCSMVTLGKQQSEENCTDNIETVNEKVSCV

[11] = target: D(2) dopamine receptor (Rattus norvegicus) (UniProt P61169); assay: Displacement of [3H]-spiperone from dopamine D2 receptor in rat brain striatum membrane homogenates at 10 uM incubated for 90 mins; type: cell membranes
Mus musculus [12] = assay: Antinociceptive activity in Na2S induced colonic pain mouse model at 0.03 to 0.5 mg/kg, ip pretreated for 30 mins followed by intra-colonic administration of Na2S and measured for 30 mins by von frey test; type: functional, organism-based; settings: dose 0.03-0.5 mg/kg, time 60.0 min
[13] = Toxicity in mouse assessed as impairment of neuromuscular coordination by measuring shortened latency to fall at 1 mg/kg, ip measured after 60 to 90 mins by rota-rod test; type: organism-based; settings: in vivo, time 60-90 min
[14] = Antagonist activity at 5-HT1 receptor (unknown origin); parameters: species or system Homo sapiens
Mus musculus [15] = assay: Antinociceptive activity in Na2S induced referred hyperalgesia mouse model at 0.03 to 0.5 mg/kg, ip pretreated for 30 mins followed by intracolonic administration of Na2S and measured for 30 mins by von frey test; type: functional, organism-based; settings: dose 0.03-0.5 mg/kg, time 60.0 min
[16] = Toxicity in mouse assessed as catelepsy at 0.3 to 1 mg/kg, ip measured for 300 mins by bar test; type: organism-based; settings: in vivo, 5 h, dose 0.3-1 mg/kg
[17] = target: 5-hydroxytryptamine receptor 2A (Rattus norvegicus) (UniProt P14842); assay: Antagonist activity at 5-HT2A receptor in Wistar rat jugular vein assessed as vasorelaxation of serotonin-induced contraction at 100 uM preincubated for 10 mins followed by serotonin stimulation; type: functional, tissue-based; settings: filed as antagonist

## O=c1n(CCCCc2cccc(F)c2)c2ccccc2n1C1CCN(CCCCc2cccc(F)c2)CC1
[1]
  Activity: Non-Toxic
[2]
  Activity: Non-Toxic
[3]
  Activity: inactive
[4]
  IC50: 1.11 µM
[5]
  half-life: 2.42 h
[6]
  inhibition: Active
[7]
  IC50: 0.217 µM
[8]
  IC50: 0.093 µM
[9]
  Activity: Non-Toxic
[10]
  Activity: inactive

## O=c1n(CCCCc2ccccc2)c2ccccc2n1C1CCN(CCCCc2cccc(F)c2)CC1
[3]
  Activity: inactive
[6]
  inhibition: Active
[7]
  IC50: 0.211 µM
[8]
  IC50: 0.151 µM

## O=c1n(CCCCc2ccccc2)c2ccccc2n1C1CCN(CCCCc2ccccc2F)CC1
[3]
  Activity: inactive
[6]
  inhibition: Active

## COc1ccc2c(c1)c(CC(=O)O)c(C)n2C(=O)c1ccc(Cl)cc1
[10]; filed as antagonist
  Activity: Active

## O=c1n(CCCCc2ccccc2)c2ccccc2n1C1CCN(CCCCc2ccccc2)CC1
[1]
  Activity: Non-Toxic
[2]
  Activity: Non-Toxic
[3]
  Activity: inactive
[11]
  Activity: inactive
[6]
  inhibition: Active
[7]
  IC50: 0.209 µM
[9]
  Activity: Non-Toxic

## O=c1[nH]c2ccccc2n1C1CCN(CCCC(c2ccc(F)cc2)c2ccc(F)cc2)CC1 [PIMOZIDE]
[2]
  Activity: Toxic
Mus musculus [12]
  Activity: Active
[5]
  half-life: 2.47 h
[13]
  Activity: Toxic
[14]
  IC50: 2.44 µM
[7]
  IC50: 0.307 µM
Mus musculus [15]
  Activity: Active
[16]
  Activity: Toxic
[10]; filed as antagonist
  Activity: Active

## O=c1n(CCCCc2ccccc2)c2ccccc2n1C1CCN(CCCC(c2ccc(F)cc2)c2ccc(F)cc2)CC1
[3]
  Activity: inactive
[6]
  inhibition: inactive

## O=C(CCCc1ccccc1)N1CCC(n2c(=O)n(CCCCc3ccccc3)c3ccccc32)CC1
[1]
  Activity: Non-Toxic
[2]
  Activity: Non-Toxic
[3]
  Activity: inactive
[11]
  Activity: inactive
[6]
  inhibition: Active
[7]
  IC50: 0.24 µM
[9]
  Activity: Non-Toxic

## COC(=O)[C@@H](N)CCCNC(=N)N[N+](=O)[O-]
[17]
  Activity: Active

## COc1ccccc1CCCCN1CCC(n2c(=O)n(CCCCc3ccccc3)c3ccccc32)CC1
[3]
  Activity: inactive
[11]
  Activity: inactive
[6]
  inhibition: Active

## COc1ccccc1CCCCn1c(=O)n(C2CCN(CCCCc3ccccc3)CC2)c2ccccc21
[3]
  Activity: inactive
[6]
  inhibition: Active

## COc1ccccc1CCCCN1CCC(n2c(=O)n(CCCCc3ccccc3OC)c3ccccc32)CC1
[3]
  Activity: inactive
[6]
  inhibition: Active

## O=c1n(CCCCc2ccccc2)c2ccccc2n1C1CCN(CCCOc2ccccc2)CC1
[3]
  Activity: inactive
[11]
  Activity: inactive
[6]
  inhibition: Active

## O=c1n(CCCCc2ccccc2Cl)c2ccccc2n1C1CCN(CCCCc2ccccc2)CC1
[3]
  Activity: inactive
[6]
  inhibition: Active
